Test results as given in patent US11260108B2, “MIC-1 and GLP-1 for use in the treatment of obesity” (Novo Nordisk A/S, priority 2017, dated 2022).

System: male obese Sprague Dawley rats
Assay: Body weight lowering in obese rat, MIC-1-HSA in combination with semaglutide (Example 2)
Type: in vivo
Source text: The purpose of the study in example 2 was to investigate effects of a MIC-1-HSA compound in combination with the GLP-1 compound semaglutide on body weight lowering in obese rat.
60 male obese Sprague Dawley rats from Taconic were used. Animals where housed 2 per cage and had ad libitum access to high-fat diet (45 kcal % fat, Research Diets Inc, diet 12451). Mean starting body weight was 736.0 g (634.7-982.4 g). Animals were randomised into 6 groups based on body weight (n=10). Animals were housed in reversed light cycle (dark 11:00-23:00). Vehicle and semaglutide were dosed subcutaneously (SC) once daily (QD) for the duration of the study (study day 0-26) at 10 am. Because of the immunogenic properties of MIC-1-HSA in rodents, the dosing period with MIC-1-HSA was limited to 12 days. MIC-1-HSA was dosed SC every other day, starting at study day 15 and ending at day 26. The two compounds were in all cases dosed individually and were not administrated in the same formulation using the same syringe.
Due to a long in vivo terminal half-life of MIC-1 HSA (˜50 hrs in lean rat) animals were dosed with a bolus dose at day 15 and subsequent doses of MIC-1-HSA were reduced to compensate for the protracted half-life to achieve a stable plasma exposure during the study. […] Dose volume was adjusted to daily body weight. Please see table 3.
The dose of Semaglutide was 2 nmol/kg and was selected in order to achieve a therapeutic relevant pharmaco-dynamic effect.
From day −1 and during the entire dosing period until day 26, body weight was monitored daily prior to dosing.
The dosing was performed using insulin syringe and a dosing volume of 1 ml/kg (2.3 ml/kg for bolus dose of MIC-1-HSA).
In table 4 are shown pharmacodynamic effects expressed as changes in body weights of obese rats in response to the 6 treatment arms. Data are expressed as the average values as grams (A) and as percentages (B). “Delta 0-26” is the change in body weight from day 0 to day 26. “vs vehicle” is the change in body weight at day 26 in comparison with the vehicle group at day 26. “Predicted” is the expected change in body weight based on body weight changes in the associated MIC-1-HSA and semaglutide mono-therapy arms. “Synergy” expresses the unexpected and additional effect beyond the predicted effect of the MIC-1-HSA and semaglutide combination. This value is calculated by subtracting the predicted value from the actual effect of the combination (vs vehicle). A negative synergy value reflects an additional unexpected synergistic body weight lowering effect.

[1] = Sema 2 nmol/kg, change day 0 to day 26
[2] = Sema 2 nmol/kg, day 26 vs vehicle group

N6.26-{18-[N-(17-carboxyheptadecanoyl)-L-γ-glutamyl]-10-oxo-3,6,12,15-tetraoxa-9,18-diazaoctadecanoyl}-[8-(2-amino-2-propanoic acid),34-L-arginine]human glucagon-like peptide 1(7-37) [Sema]
Body weight [% of study start] Study end (Sema 2 nmol/kg SC QD day 0-26): 95 % of study start
Body weight [gram] Study end (Sema 2 nmol/kg SC QD day 0-26): 746 gram
Body weight [% of study start] Delta 0-26 [1]: −5.4 % of study start
Body weight [gram] Delta 0-26 [1]: −41.8 gram
Body weight [% of study start] vs vehicle [2]: −8.0 % of study start
Body weight [gram] vs vehicle [2]: −62.2 gram
reduced body weight compared to vehicle (semaglutide monotherapy 2 nmol/kg, day 26): 8.0%
